The values below come from article PMC12522106 (Cancer Research Communications, 2025).

The subject of series [1] is sarcospheres from canine patients with osteosarcoma. Kind of series: Resazurin metabolic activity of canine patient-derived sarcospheres. The format is cell-based. Particulars: for ED50: 48 hours, metabolic activity. The source says: Osteosarcoma tissue was obtained during standard-of-care procedures (biopsies or resections) in human patients treated at Indiana University Health and Riley Children’s Hospital with Institutional Review Board approval (#1501467439). Tissue from canine patients with osteosarcoma was obtained from standard-of-care amputations at the Purdue University College of Veterinary Medicine and the Metropolitan Veterinary Hospital. Osteosarcoma diagnosis was confirmed by review of pathology reports. Demographic and clinical information for human and canine patients is in Table 1. Primary osteosarcoma cells were isolated by collagenase/mechanical dispersion using a modification of a previously described protocol ([35]). […] The tissue was rinsed with cold PBS (Cytiva, cat. #SH30028.02) and minced prior to incubation in 10 mL of culture media containing collagenase type II (750 units/mL with 13–18 units of clostripain/mL, Worthington, cat. #LS004176) for 3 hours at 37°C and 5% CO2. The media and tissue fragments were centrifuged at 200 g for 5 minutes. Pellets with a visible layer of red blood cells were then treated with 5 mL of ACK Lysing Buffer (Gibco, cat. #A10492-01) for 1 minute and then centrifuged at 200 g for 2 minutes. Pellets were resuspended in culture media, pipetted up and down 15 times to disperse tissue fragments, and centrifuged at 200 g for 5 minutes. Finally, any remaining tissue fragments were crushed with a 25-mL pipette and transferred with released cells and culture media to a 100-mm tissue culture dish and incubated at 37°C and 5% CO2. Media were changed every 3 days. When a confluence of ∼80% was reached, the cells were passaged to 150-mm dishes at 5,000 cells/cm^2. Aliquots of the patient-derived osteosarcoma cells were frozen in 10% DMSO (Sigma-Aldrich, D2650), 40% FBS (Cytiva, SH30071.03), and 50% culture media at second passage and stored in liquid nitrogen. The TT2-77 xenoline is a patient cell line that was isolated from a patient-derived xenograft (PDX) that was previously developed and characterized by the Pollok lab ([5]).
(§1) The number of patient-derived cells required to obtain sarcospheres with 400-μm diameters was determined for each patient and varied from 1,000 to 15,000 cells per sarcosphere.
Round-bottom 96-well plates were coated with 50 μL/well of 0.5% poly 2-hydroxyethyl methacrylate (Polysciences Inc., cat. #09689-25) in 100% ethanol and incubated at 37°C for 3 days before use to obtain a nonadherent surface. […] Highly metastatic osteosarcoma cells cultured in monolayers at 50% to 80% confluence were lifted with Accutase (Innovative Cell Technologies, Inc., cat. #NC9839010), resuspended in media, and diluted to the desired concentration.

In series [2] the test system is monolayers of either established osteosarcoma cell lines or PDX cell lines. More on the design: method as in PMID 30395907, PMID 26601688, PMID 37457661, PMID 35411591. The settings on record: cited from earlier work.
The conditions of series [3]: cited from earlier work.
Series [4] relates to human and canine patient-derived sarcospheres. The experiment in a line: Resazurin metabolic activity of patient-derived sarcospheres, human and canine summarised together. Format: cell-based. The settings on record: 48 h, the other patient samples, read-out: ED50s of romidepsin-resistant patient samples. An excerpt: Osteosarcoma tissue was obtained during standard-of-care procedures (biopsies or resections) in human patients treated at Indiana University Health and Riley Children’s Hospital with Institutional Review Board approval (#1501467439). Tissue from canine patients with osteosarcoma was obtained from standard-of-care amputations at the Purdue University College of Veterinary Medicine and the Metropolitan Veterinary Hospital. Osteosarcoma diagnosis was confirmed by review of pathology reports. Demographic and clinical information for human and canine patients is in Table 1. Primary osteosarcoma cells were isolated by collagenase/mechanical dispersion using a modification of a previously described protocol ([35]). […] The tissue was rinsed with cold PBS (Cytiva, cat. #SH30028.02) and minced prior to incubation in 10 mL of culture media containing collagenase type II (750 units/mL with 13–18 units of clostripain/mL, Worthington, cat. #LS004176) for 3 hours at 37°C and 5% CO2. The media and tissue fragments were centrifuged at 200 g for 5 minutes. […]
The number of patient-derived cells required to obtain sarcospheres with 400-μm diameters was determined for each patient and varied from 1,000 to 15,000 cells per sarcosphere. […]

In a further series the test system is 143B sarcospheres. The experiment in a line: Sarcosphere size (Incucyte). The format is cell-based, human. The settings on record: initial 48-hour observation period.
A further series deals with LM7 sarcospheres. Kind of series: Sarcosphere size (Incucyte). The format is cell-based, human. The settings on record: 48-hour period.
Series [5] deals with LM7 cell–derived lung metastases. More on the design: method as in PMID 32599665. Particulars: administration continued for the entire 21-week observation period; cited from earlier work.
The subject of series [6] is patient-derived sarcospheres. The experiment in a line: Sarcosphere size (Incucyte). Particulars: 48-hour observation period; sensitive and resistant samples. The format is cell-based, human, canine. The method, then:
as §1

Series [7] concerns murine K7M2 osteosarcoma cells. More on the design: method as in PMID 32599665. The settings on record: compared with LM7 model; cited from earlier work.

For `C/C=C1\NC(=O)[C@H]2CSSCC/C=C/[C@H](CC(=O)N[C@H](C(C)C)C(=O)N2)OC(=O)[C@H](C(C)C)NC1=O` [romidepsin], in series [1] (ED50s <70 nmol/L), the “share of canine patient samples whose sarcospheres responded” value is recorded as 50%. The ED50 in [1] (canine patient sample MVHcOS001 (romidepsin resistant)) is >1,000 nmol/L; in series [1] (canine patient sample MVHcOS002 (romidepsin resistant)), >1,000 nmol/L; in series [1] (canine patient sample MVHcOS003 (romidepsin sensitive)) it was 22 nmol/L; in [1] (canine patient sample MVHcOS004 (romidepsin sensitive)), 6 nmol/L; in series [1] (canine patient sample MVHcOS005 (romidepsin resistant)), >1,000 nmol/L; in series [1] (canine patient sample MVHcOS006 (romidepsin resistant)), >1,000 nmol/L. Besides, the ED50 was 65 nmol/L in series [1] (canine patient sample PUcOS001 (romidepsin sensitive)), 46 nmol/L in [1] (canine patient sample PUcOS002 (romidepsin sensitive)), >1,000 nmol/L in series [1] (canine patient sample PUcOS003 (romidepsin resistant)) and 57 nmol/L in series [1] (canine patient sample PUcOS004 (romidepsin sensitive)). Moreover, the “standing in four independent screens” value in [2] was “among the top hits”. For the same compound, the “most common severe adverse events” value in series [3] was “thrombocytopenia and neutropenia”. Also, the “most common side effect” value in [3] is reported as “Nausea”. The severe toxicities entry in series [3] was “few severe toxicities”. Also, the “most concerning potential side effect” value in [3] (reported in humans, rats, and beagle dogs) is given as “cardiac toxicity”. For the same compound, the EC50 in series [4] was > 1000 nM. In addition, the “effect on sarcosphere size” value with 143B sarcospheres is listed as “inhibited the increase in size”; in the series with LM7 sarcospheres, “did not alter size”; in series [6], “did not change in size”. The “growth of lung metastases” value in [5] is reported as “prevented”. Further, the “effect on lung metastases” value in series [7] is recorded as “less effect”.
